According to PMC5741510 (Cell chemical biology, 2017):

Molecular target: dihydroorotate dehydrogenase (DHODH) (Escherichia coli, UniProt P0A7E1)
Assay: continuous DCIP-reduction assay at […] nm, Lineweaver-Burk analysis
Format: biochemical

Chain of dihydroorotate dehydrogenase (DHODH) (P0A7E1 whole entry): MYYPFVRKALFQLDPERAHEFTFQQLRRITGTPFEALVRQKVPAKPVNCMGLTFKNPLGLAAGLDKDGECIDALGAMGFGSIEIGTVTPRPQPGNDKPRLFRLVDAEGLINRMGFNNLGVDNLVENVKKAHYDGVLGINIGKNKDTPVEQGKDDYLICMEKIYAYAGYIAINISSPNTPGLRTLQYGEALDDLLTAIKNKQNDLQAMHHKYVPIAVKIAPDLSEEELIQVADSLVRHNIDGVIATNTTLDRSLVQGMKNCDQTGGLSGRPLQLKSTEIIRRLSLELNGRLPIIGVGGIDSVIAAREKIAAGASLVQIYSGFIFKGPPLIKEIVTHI

Row | Compound | Ki [nM]
1 | CCCCCCCc1cc(=O)c2ccccc2n1O [HQNO, 2-heptyl-4(1H)-quinolone N-oxide] | 239
2 | CCCCCCC=CCc1nc2ccccc2c(O)c1C [HMNQ, 4-hydroxy-3-methyl-2-(2-nonenyl)-quinoline] | 51
